The values that follow come from ChEMBL document CHEMBL1150341, “Anti-Helicobacter pylori activity of derivatives of the phthalide-containing antibacterial agents spirolaxine methyl ether, CJ-12,954, CJ-13,013, CJ-13,102, CJ-13,104, CJ-13,108 and CJ-13,015” (2008).

What all share (assay type): functional
The test system of experiment [1] is Helicobacter pylori. Description: Antibacterial activity against Helicobacter pylori NCTC-11637 after 24 hrs. Particulars: NCTC-11637, 24 h.
Experiment [2] relates to Helicobacter pylori. As to the kind of experiment: Antibacterial activity against Helicobacter pylori NCTC-11637 after 5 days by serial dilution method.
The subject of experiment [3] is Helicobacter pylori. As to the kind of experiment: Antibacterial activity against Helicobacter pylori NCTC-11637 assessed as zone of inhibition at 0.5 ug/disk. Particulars: read-out: IZ.
For experiment [4], the system named is Helicobacter pylori. As to the kind of experiment: Antibacterial activity against Helicobacter pylori NCTC-11637 assessed as zone of inhibition at 500 ug/disk. Particulars: read-out: IZ.
For experiment [5], the system named is Helicobacter pylori. Description: Antibacterial activity against Helicobacter pylori assessed NCTC-11637 as zone of inhibition at 2 ug/disk. The conditions noted are these: read-out: IZ.
The test system of experiment [6] is Helicobacter pylori. Description: Antibacterial activity against Helicobacter pylori NCTC-11637 assessed as zone of inhibition at 10 ug/disk. The conditions noted are these: read-out: IZ.
In experiment [7] the test system is Helicobacter pylori. As to the kind of experiment: Antibacterial activity against Helicobacter pylori assessed NCTC-11637 as zone of inhibition at 0.02 ug/disk. The conditions noted are these: read-out: IZ.
Experiment [8] deals with Helicobacter pylori. As to the kind of experiment: Antibacterial activity against Helicobacter pylori assessed NCTC-11637 as zone of inhibition at 0.01 ug/disk. The conditions noted are these: read-out: IZ.
The mark [9] stands for this setting: Helicobacter pylori, 120 h, read-out: MBC.

Usually MIC stands for the least concentration at which growth counts as inhibited. A word on the MBC: it is the smallest concentration meeting the test's criterion for killing.

≈ marks a conversion by molar mass, not a printed value. Where only a bound is given, the exact number is not on record here.

`COc1cc(OC)c2c(c1)C(CCCCCCCCCC(CCC(C)=O)OC(C)=O)OC2=O` (stereo not drawn) displayed an MIC against Helicobacter pylori [1] of 1.25 µg/mL (≈ 2.7 µM). Also, the MBC in the experiment with Helicobacter pylori [2] (setting [9]) amounted to 2.5 µg/mL (≈ 5.4 µM). Also, the zone of inhibition at 0.5 µg/disc in the experiment with Helicobacter pylori [3] worked out at 15 mm.
`COc1cc(OC)c2c(c1)[C@@H](CCCCC[C@H]1CCC[C@]3(CC[C@@H](C)O3)O1)OC2=O` had a minimum inhibitory concentration (MIC) in the experiment on Helicobacter pylori [1] of 0.5 µg/mL (≈ 1.19 µM). In the experiment with Helicobacter pylori [2] (setting [9]), the minimal bactericidal concentration (MBC) was determined as 1 µg/mL (≈ 2.39 µM).
Taken in the same sequence, the figures for `COc1cc(OC)c2ccn(CCCCCCCCCC(CCC(C)=O)OC(C)=O)c2c1` (stereo not drawn) were > 100 µg/mL and > 100 µg/mL.
`COc1cc(OC)c2ccn(CCCCCCCCCCCCC(C)O)c2c1` (stereo not drawn): the MIC in the experiment with Helicobacter pylori [1] was > 100 µg/mL. In the experiment on Helicobacter pylori [2] (setting [9]), the MBC is > 100 µg/mL.
For `COc1cc(OC)c2ccn(CCCCCCCCCCCCC(C)=O)c2c1`, the lowest concentration to inhibit growth against Helicobacter pylori [1] (MIC) was 50 µg/mL (≈ 129 µM). Also, in the experiment with Helicobacter pylori [2] (setting [9]), the MBC was 50 µg/mL (≈ 129 µM).
For `COc1cc(OC)c2ccn(CCCCCCCCCC(=O)CCC(C)=O)c2c1`, it took 10 µg/mL (≈ 24.9 µM) to inhibit growth with Helicobacter pylori [1] (MIC). Moreover, the MBC in the experiment on Helicobacter pylori [2] (setting [9]) worked out at 20 µg/mL (≈ 49.8 µM).
Taken in the same sequence, the figures for `COc1cc(OC)c2ccn(CCCC3CCCC4(CCCCO4)O3)c2c1` (stereo not drawn) were 20 µg/mL (≈ 53.5 µM) and 40 µg/mL (≈ 107 µM).
In the experiment on Helicobacter pylori [1], `COc1cc(OC)c2c(c1)C(CCCCCCCCCCCCC(C)O)OC2=O` (stereo not drawn) showed an MIC of 12.5 µg/mL (≈ 30.7 µM). The MBC in the experiment on Helicobacter pylori [2] (setting [9]) came out at 50 µg/mL (≈ 123 µM). Also, in the experiment on Helicobacter pylori [4], the zone of inhibition at 500 µg/disc was determined as 15 mm.
`COc1cc(OC)c2c(c1)[C@H](CCCCCC[C@H]1CC[C@]3(CC[C@H](C)O3)O1)OC2=O`: in the experiment on Helicobacter pylori [1], the lowest concentration to inhibit growth (MIC) was 20 µg/mL (≈ 47.8 µM). Also, in the experiment on Helicobacter pylori [2] (setting [9]), the MBC is 100 µg/mL (≈ 239 µM).
The molecule `COc1cc(OC)c2c(c1)[C@@H](CCCCCC[C@H]1CC[C@@]3(CC[C@H](C)O3)O1)OC2=O` gave an MIC in the experiment with Helicobacter pylori [1] of 0.3 µg/mL (≈ 0.717 µM). Further, the MBC with Helicobacter pylori [2] (setting [9]) was 0.3 µg/mL (≈ 0.717 µM).
With `COc1cc(OC)c2c(c1)[C@H](CCCCCC[C@H]1CC[C@@]3(CC[C@H](C)O3)O1)OC2=O`, in the experiment with Helicobacter pylori [1], the MIC amounted to 20 µg/mL (≈ 47.8 µM). The MBC in the experiment with Helicobacter pylori [2] (setting [9]) was 100 µg/mL (≈ 239 µM).
The like results for `COc1cc(OC)c2c(c1)[C@@H](CCCCCC[C@H]1CC[C@]3(CC[C@H](C)O3)O1)OC2=O` were, in that order, 0.3 µg/mL (≈ 0.717 µM) and 0.3 µg/mL (≈ 0.717 µM).
`COc1cc(OC)c2c(c1)C(CCCCCCCCCC(=O)CCC(C)=O)OC2=O` (stereo not drawn) returned an MIC against Helicobacter pylori [1] of 2.5 µg/mL (≈ 5.97 µM). Further, the MBC in the experiment with Helicobacter pylori [2] (setting [9]) is 5 µg/mL (≈ 11.9 µM). Also, in the experiment on Helicobacter pylori [5], the zone of inhibition at 2 µg/disc was determined as 15 mm.
`COc1cc(OC)c2c(c1)C(CCCCCCCCCCCCC(C)=O)OC2=O` (stereo not drawn) registered an MIC in the experiment on Helicobacter pylori [1] of 10 µg/mL (≈ 24.7 µM). For the same molecule, in the experiment with Helicobacter pylori [2] (setting [9]), the MBC came to 10 µg/mL (≈ 24.7 µM). The zone of inhibition at 10 µg/disc in the experiment on Helicobacter pylori [6] is 15 mm.
Turning to `COc1cc(OC)c2ccn(CCCCCCCCC(C)=O)c2c1`, the lowest concentration to inhibit growth in the experiment on Helicobacter pylori [1] (MIC) was 5 µg/mL (≈ 15.1 µM). Besides, in the experiment with Helicobacter pylori [2] (setting [9]), the MBC stood at 10 µg/mL (≈ 30.2 µM).
Taken in the same sequence, the figures for `COc1cc(OC)c2c(c1)[C@@H](CCCCC[C@H]1CCC[C@]3(CC[C@H](C)O3)O1)OC2=O` were 0.125 µg/mL (≈ 0.299 µM) and 0.125 µg/mL (≈ 0.299 µM).
In the experiment on Helicobacter pylori [1], `COc1cc(OC)c2c(c1)C(CCCCCCC1CCC3(CCC(C)O3)O1)OC2=O` (stereo in doubt) displayed an MIC of 0.02 µg/mL (≈ 0.0478 µM). Moreover, the minimal bactericidal concentration (MBC) against Helicobacter pylori [2] was 0.2 µg/mL (≈ 0.478 µM).
As to `COc1cc(OC)c2c(c1)C(CCCCCCC1CCC3(CCC(C)O3)O1)OC2=O` (stereo in doubt; 5), the minimal bactericidal concentration (MBC) in the experiment with Helicobacter pylori [2] was found to be 0.02 µg/mL (≈ 0.0478 µM). In addition, in the experiment with Helicobacter pylori [7], the zone of inhibition at 0.02 µg/disc was determined as 15 mm.
`COc1cc(O)cc2c1C(=O)OC2CCCCCC1CCCC2(CCC(C)O2)O1` (stereo not drawn) [SPIROLAXINE] came in with an MIC with Helicobacter pylori [1] of 0.2 µg/mL (≈ 0.494 µM). The zone of inhibition at 0.01 µg/disc in the experiment with Helicobacter pylori [8] was 15 mm. Further, the MBC with Helicobacter pylori [2] (setting [9]) was > 2 µg/mL.
